Experimental findings from ChEMBL document CHEMBL3769401, “The first potent diphenyl phosphonate KLK4 inhibitors with unexpected binding kinetics” (Medchemcomm, 2015) are described below.

What is called pIC50 is the negative decadic logarithm of the IC50, by convention in mol/L.

pIC50: −log10 of the molar value. Active and inactive are the calls of the source. The rule behind the calls is not given here.

In experiment [1] the target is T1, Kallikrein-4 (Homo sapiens, UniProt Q9Y5K2). The experiment is described as follows: Inhibition of human recombinant KLK4 expressed in Escherichia coli using Bachem I-1120 as substrate preincubated for 15 mins followed by substrate addition by microplate reader analysis.
Another experiment addresses T2, Kallikrein-2 (Homo sapiens, UniProt P20151).
T2 sequence (P20151 whole entry): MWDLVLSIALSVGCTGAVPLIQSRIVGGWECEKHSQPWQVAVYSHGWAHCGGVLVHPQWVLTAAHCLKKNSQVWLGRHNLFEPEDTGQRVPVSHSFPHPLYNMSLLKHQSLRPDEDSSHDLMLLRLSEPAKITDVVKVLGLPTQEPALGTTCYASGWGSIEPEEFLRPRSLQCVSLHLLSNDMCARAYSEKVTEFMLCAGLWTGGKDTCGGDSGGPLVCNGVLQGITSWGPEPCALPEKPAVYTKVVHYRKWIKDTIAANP
The experiment is described as follows: Inhibition of human recombinant KLK2 expressed in Escherichia coli using Bachem I-1295 as substrate preincubated for 15 mins followed by substrate addition by microplate reader analysis.

Experiment [2] deals with T3, Kallikrein-1 (Homo sapiens, UniProt P06870). The experiment is described as follows: Inhibition of human recombinant KLK1 expressed in Escherichia coli using Bachem I-1295 as substrate preincubated for 15 mins followed by substrate addition by microplate reader analysis.
Target sequence in this assay (P06870 whole entry): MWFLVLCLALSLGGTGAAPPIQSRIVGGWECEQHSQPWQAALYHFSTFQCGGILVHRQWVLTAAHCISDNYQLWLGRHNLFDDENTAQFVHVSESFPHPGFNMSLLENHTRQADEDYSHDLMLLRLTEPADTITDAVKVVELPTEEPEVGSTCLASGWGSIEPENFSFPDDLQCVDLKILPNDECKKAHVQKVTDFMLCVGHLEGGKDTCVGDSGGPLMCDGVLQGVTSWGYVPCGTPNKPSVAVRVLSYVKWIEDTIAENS
The target of a further experiment is T4, Kallikrein-8 (Homo sapiens, UniProt O60259).
T4 sequence (O60259 whole entry): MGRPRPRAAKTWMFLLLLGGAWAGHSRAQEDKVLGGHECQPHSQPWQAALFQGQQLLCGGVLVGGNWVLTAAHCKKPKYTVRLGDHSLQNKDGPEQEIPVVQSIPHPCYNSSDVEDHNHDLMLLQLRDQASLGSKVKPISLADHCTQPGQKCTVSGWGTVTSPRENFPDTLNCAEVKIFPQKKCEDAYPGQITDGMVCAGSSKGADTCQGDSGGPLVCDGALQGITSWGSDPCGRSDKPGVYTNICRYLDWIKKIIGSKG
The experiment is described as follows: Inhibition of human recombinant KLK8 expressed in Escherichia coli using Bachem I-1120 as substrate preincubated for 15 mins followed by substrate addition by microplate reader analysis.

Experiment [3] deals with Urokinase-type plasminogen activator (Homo sapiens, UniProt P00749). The experiment in a line: Inhibition of recombinant uPA (unknown origin) using Biophen CS-61(44) as substrate.
In experiment [4] the target is Tissue-type plasminogen activator (Homo sapiens, UniProt P00750). The experiment in a line: Inhibition of recombinant tPA (unknown origin) using Biophen CS-05(88) as substrate.
The target in experiment [5] is T5, Prothrombin (Homo sapiens, UniProt P00734). The experiment is described as follows: Inhibition of human plasma thrombin using Biophen CS-21(66) as substrate preincubated for 15 mins followed by substrate addition by microplate reader analysis. The experiment is classed as cell-free.
In the next experiment the target is Plasminogen (Homo sapiens, UniProt P00747). The experiment is described as follows: Inhibition of human plasma plasmin using Biophen CS-21(66) as substrate. The experiment is classed as cell-free.
Another experiment has as its target Coagulation factor X (Homo sapiens, UniProt P00742). The experiment is described as follows: Inhibition of factor 10a (unknown origin) using Biophen CS-11(32) as substrate.
The target in the next experiment is Acetylcholinesterase (Electrophorus electricus, UniProt O42275). The experiment is described as follows: Inhibition of Electrophorus electricus AChE using acetylthiocholine iodide as substrate by 5-5'-Dithiobis(2 nitrobenzoic acid)-based assay.
Experiment [6] concerns the target T6, Kallikrein-2 (Homo sapiens) (UniProt P20151).
T6 sequence (whole entry): T2 sequence (P20151 whole entry)
The experiment in a line: Reversible inhibition of human recombinant KLK2 expressed in Escherichia coli using H-Pro-Phe-Arg-AMC as fluorogenic substrate at 100 times IC50 preincubated for 15 mins followed by 100 fold dilution measured for 1 hr.

Experiment [7] concerns the target T3, Kallikrein-1. The experiment is described as follows: Reversible inhibition of human recombinant KLK1 expressed in Escherichia coli using H-Pro-Phe-Arg-AMC as fluorogenic substrate at 100 times IC50 preincubated for 15 mins followed by 100 fold dilution measured for 1 hr.
Target sequence in this assay (P06870 25-262 limits assumed): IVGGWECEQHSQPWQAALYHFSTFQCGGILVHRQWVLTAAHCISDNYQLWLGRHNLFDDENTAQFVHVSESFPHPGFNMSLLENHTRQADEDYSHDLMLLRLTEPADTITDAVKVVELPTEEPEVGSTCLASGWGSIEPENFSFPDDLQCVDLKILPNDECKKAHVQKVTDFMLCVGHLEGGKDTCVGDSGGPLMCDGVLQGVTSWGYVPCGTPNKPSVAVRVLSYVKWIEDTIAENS
Experiment [8] is filed under the species Homo sapiens. The experiment in a line: Selectivity ratio of IC50 for human recombinant KLK2 to IC50 for human recombinant KLK4.
The species entered for experiment [9] is Homo sapiens. The experiment in a line: Selectivity ratio of IC50 for human recombinant KLK1 to IC50 for human recombinant KLK4.
For experiment [10], the species on record is Homo sapiens. The experiment in a line: Selectivity ratio of IC50 for human recombinant KLK8 to IC50 for human recombinant KLK4.
Experiment [11] is filed under the species Homo sapiens. The experiment is described as follows: Selectivity ratio of IC50 for recombinant uPA (unknown origin) to IC50 for human recombinant KLK4.
Experiment [12] is filed under the species Homo sapiens. The experiment is described as follows: Selectivity ratio of IC50 for recombinant tPA (unknown origin) to IC50 for human recombinant KLK4.
Experiment [13] is filed under the species Homo sapiens. The experiment is described as follows: Selectivity ratio of IC50 for human plasma thrombin to IC50 for human recombinant KLK4.
The species entered for experiment [14] is Homo sapiens. The experiment in a line: Selectivity ratio of IC50 for human plasma plasmin to IC50 for human recombinant KLK4.
For experiment [15], the species on record is Homo sapiens. The experiment in a line: Selectivity ratio of IC50 for factor 10a (unknown origin) to IC50 for human recombinant KLK4.
The nature of experiment [16]: Selectivity ratio of IC50 for Electrophorus electricus AChE to IC50 for human recombinant KLK4.
Experiment [17] has as its target T1, Kallikrein-4. The experiment is described as follows: Reversible inhibition of human recombinant KLK4 expressed in Escherichia coli using Bachem I-1120 as fluorogenic substrate at 100 times IC50 preincubated for 15 mins followed by 100 fold dilution measured for 1 hr by microplate reader analysis.
The target of experiment [18] is T3, Kallikrein-1. The experiment is described as follows: Irreversible inhibition of human recombinant KLK1 expressed in Escherichia coli using H-Pro-Phe-Arg-AMC as fluorogenic substrate at 100 times IC50 preincubated for 15 mins followed by 100 fold dilution measured for 1 hr.
Target sequence in this assay (P06870 25-262 limits assumed): as above
Experiment [19] addresses T7, Subtilisin Carlsberg (Bacillus licheniformis) (UniProt P00780).
T7 sequence (whole entry): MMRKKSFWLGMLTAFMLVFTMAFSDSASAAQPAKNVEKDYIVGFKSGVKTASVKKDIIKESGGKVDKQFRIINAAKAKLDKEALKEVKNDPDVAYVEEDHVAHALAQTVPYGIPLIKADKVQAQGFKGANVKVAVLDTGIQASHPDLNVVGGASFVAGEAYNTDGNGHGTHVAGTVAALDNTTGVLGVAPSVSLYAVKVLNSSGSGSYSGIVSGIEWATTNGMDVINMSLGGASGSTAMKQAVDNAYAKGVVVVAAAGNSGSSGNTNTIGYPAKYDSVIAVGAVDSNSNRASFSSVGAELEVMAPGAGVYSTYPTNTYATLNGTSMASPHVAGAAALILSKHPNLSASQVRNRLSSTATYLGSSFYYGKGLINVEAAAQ
The experiment in a line: Inhibition of Bacillus licheniformis subtilisin using Suc-Ala-Ala-Pro-Phe-AMC as substrate by spectrofluorometry.

Experiment [20] concerns the target T8, Kallikrein-8 (Homo sapiens) (UniProt O60259).
T8 sequence (whole entry): T4 sequence (O60259 whole entry)
The experiment is described as follows: Irreversible inhibition of human recombinant KLK8 expressed in Escherichia coli using Boc-Val-Pro-Arg-AMC as fluorogenic substrate at 100 times IC50 preincubated for 15 mins followed by 100 fold dilution measured for 1 hr.

Experiment [21] addresses T5, Prothrombin. The experiment is described as follows: Reversible inhibition of human thrombin using Biophen CS-21(66) as substrate at 100 times IC50 preincubated for 15 mins followed by 100 fold dilution measured for 1 hr.

Sequence of Tissue-type plasminogen activator (P00750 whole entry): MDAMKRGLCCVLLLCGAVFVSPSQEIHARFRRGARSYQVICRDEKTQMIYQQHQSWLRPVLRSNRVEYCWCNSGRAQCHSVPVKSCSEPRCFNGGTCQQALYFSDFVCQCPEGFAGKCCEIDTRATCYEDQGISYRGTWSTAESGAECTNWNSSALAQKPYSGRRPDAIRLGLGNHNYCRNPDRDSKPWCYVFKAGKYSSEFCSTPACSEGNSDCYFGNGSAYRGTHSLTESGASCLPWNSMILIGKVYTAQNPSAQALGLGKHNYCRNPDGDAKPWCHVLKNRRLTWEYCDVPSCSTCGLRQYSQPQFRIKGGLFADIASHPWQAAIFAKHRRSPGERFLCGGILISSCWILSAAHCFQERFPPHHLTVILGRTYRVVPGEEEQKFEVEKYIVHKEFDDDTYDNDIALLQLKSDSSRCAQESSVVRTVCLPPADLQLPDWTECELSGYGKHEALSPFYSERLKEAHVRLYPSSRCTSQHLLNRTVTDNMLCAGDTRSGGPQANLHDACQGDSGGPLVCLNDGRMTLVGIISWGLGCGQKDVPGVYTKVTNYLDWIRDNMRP
Sequence of Coagulation factor X (P00742 41-179 limits assumed): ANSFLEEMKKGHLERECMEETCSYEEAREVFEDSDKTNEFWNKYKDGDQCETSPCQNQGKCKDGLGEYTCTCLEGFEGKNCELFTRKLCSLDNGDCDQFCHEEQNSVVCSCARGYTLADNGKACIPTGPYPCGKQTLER
Sequence of Coagulation factor X (P00742 235-488 limits assumed): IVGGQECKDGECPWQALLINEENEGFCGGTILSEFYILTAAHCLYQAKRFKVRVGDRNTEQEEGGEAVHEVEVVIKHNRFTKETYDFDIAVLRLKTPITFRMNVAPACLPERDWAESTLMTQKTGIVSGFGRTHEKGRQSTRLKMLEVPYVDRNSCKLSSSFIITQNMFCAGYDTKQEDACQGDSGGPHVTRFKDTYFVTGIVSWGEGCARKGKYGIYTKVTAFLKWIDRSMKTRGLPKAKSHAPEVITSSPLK
Sequence of Acetylcholinesterase (O42275 whole entry): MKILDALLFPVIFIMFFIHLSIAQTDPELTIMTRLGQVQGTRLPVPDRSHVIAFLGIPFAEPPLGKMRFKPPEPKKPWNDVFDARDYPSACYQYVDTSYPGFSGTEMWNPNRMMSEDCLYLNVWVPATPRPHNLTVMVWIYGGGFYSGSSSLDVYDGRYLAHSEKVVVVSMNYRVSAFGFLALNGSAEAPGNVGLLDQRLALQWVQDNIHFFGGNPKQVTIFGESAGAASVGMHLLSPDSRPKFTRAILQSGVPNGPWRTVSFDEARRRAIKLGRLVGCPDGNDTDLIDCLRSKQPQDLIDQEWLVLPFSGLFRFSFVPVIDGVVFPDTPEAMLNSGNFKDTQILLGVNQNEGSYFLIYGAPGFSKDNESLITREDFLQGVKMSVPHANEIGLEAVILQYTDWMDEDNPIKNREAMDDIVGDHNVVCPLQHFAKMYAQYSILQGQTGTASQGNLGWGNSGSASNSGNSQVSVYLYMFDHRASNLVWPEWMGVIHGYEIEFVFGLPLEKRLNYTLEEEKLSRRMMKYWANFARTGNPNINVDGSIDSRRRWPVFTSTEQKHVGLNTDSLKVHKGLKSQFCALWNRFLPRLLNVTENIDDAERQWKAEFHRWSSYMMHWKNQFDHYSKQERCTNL
Sequence of Plasminogen (P00747 97-580 limits assumed): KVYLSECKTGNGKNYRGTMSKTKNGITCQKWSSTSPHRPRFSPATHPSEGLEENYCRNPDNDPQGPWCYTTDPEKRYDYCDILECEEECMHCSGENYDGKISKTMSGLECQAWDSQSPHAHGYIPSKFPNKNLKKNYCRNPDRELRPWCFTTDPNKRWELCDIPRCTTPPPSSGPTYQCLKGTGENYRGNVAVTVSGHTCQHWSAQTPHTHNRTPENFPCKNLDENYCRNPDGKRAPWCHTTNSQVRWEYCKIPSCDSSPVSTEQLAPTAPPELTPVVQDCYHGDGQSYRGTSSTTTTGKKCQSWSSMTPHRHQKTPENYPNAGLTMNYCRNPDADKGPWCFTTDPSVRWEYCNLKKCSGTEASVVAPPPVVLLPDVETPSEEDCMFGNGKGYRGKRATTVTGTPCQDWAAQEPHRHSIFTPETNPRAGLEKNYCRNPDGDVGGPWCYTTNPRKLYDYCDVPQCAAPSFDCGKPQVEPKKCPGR
Sequence of Plasminogen (P00747 581-810 limits assumed): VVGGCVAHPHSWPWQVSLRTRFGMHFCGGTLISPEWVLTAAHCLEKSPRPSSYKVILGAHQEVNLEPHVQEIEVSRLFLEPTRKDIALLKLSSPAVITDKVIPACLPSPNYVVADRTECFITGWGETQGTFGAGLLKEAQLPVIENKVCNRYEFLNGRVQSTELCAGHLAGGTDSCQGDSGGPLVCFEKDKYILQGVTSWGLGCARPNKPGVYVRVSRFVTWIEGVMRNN
T1 sequence (Q9Y5K2 whole entry): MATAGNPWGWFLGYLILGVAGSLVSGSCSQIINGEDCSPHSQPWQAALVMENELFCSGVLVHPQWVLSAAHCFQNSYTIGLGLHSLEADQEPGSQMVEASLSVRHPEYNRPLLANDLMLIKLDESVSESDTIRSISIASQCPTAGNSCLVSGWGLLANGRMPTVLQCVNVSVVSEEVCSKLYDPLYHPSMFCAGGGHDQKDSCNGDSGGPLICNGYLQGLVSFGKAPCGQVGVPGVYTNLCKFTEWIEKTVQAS

Take `N=C(N)Nc1ccc(C(NC(=O)OCc2ccccc2)P(=O)(Oc2ccccc2)Oc2ccccc2)cc1` (stereo unspecified): the pIC50 is 8.47 on Kallikrein-4 [1]; 6.66 at Kallikrein-2; 6.62 at Kallikrein-1 [2]; 5.94 on Kallikrein-8; 5.57 in experiment [3]; 3.60 in [4]. Also, the negative-log IC50 (pIC50) was 3.60 against Prothrombin [5], 5.31 at Plasminogen, 5.44 at Coagulation factor X and less than 5.00 on Acetylcholinesterase. Besides, the inhibition entry (in experiment [6]; at Kallikrein-1 [7]) was “Active” throughout. In addition, the Ratio IC50 in the experiment listed under Homo sapiens [8] was 70; in the experiment filed under Homo sapiens [9], 70; in the experiment listed under Homo sapiens [10], greater than 300; in the experiment filed under Homo sapiens [11], greater than 300; in the experiment listed under Homo sapiens [12], greater than 300; in the experiment listed under Homo sapiens [13], greater than 300. Further, the Ratio IC50 (in the experiment listed under Homo sapiens [14]; in the experiment filed under Homo sapiens [15]; in [16]) was greater than 300 each time. Besides, the “reversible inhibition (activity call)” value on Kallikrein-4 [17] is “Active”.

Turning to `O=C(NC(c1ccc(O)cc1)P(=O)(Oc1ccccc1)Oc1ccccc1)OCc1ccccc1` (stereo unspecified), the negative logarithm of the IC50 (pIC50) is less than 5.00 at Kallikrein-4 [1]; less than 5.60 on Kallikrein-2; 7.07 on Kallikrein-1 [2]; less than 5.00 at Kallikrein-8; less than 5.00 in experiment [3]; less than 5.00 in experiment [4]. Also, the pIC50 against Prothrombin [5], on Plasminogen, at Coagulation factor X and on Acetylcholinesterase was less than 5.00 in each case. Further, the inhibition entry on Kallikrein-1 [18] was “Active”.

`CC(C)[C@H](NC(=O)OC(C)(C)C)C(=O)N1CCC[C@H]1C(=O)N[C@H](Cc1ccccc1)P(=O)(Oc1ccc(CS)cc1)Oc1ccc(CS)cc1` came in with a Kapp in experiment [19] of 1 ×10⁵ /M/s.

In the case of `N=C(N)c1ccc(C(NC(=O)OCc2ccccc2)P(=O)(Oc2ccccc2)Oc2ccccc2)cc1` (stereo unspecified), the pIC50 is 7.39 on Kallikrein-4 [1]; less than 5.60 on Kallikrein-2; less than 5.60 on Kallikrein-1 [2]; 6.10 at Kallikrein-8; less than 5.60 in experiment [4]; 6.71 against Prothrombin [5]. Besides, the figures for the negative-log IC50 (pIC50) on Plasminogen, against Coagulation factor X and at Acetylcholinesterase were less than 5.60, less than 5.60 and less than 5.00, respectively. The inhibition entry (in experiment [20]; at Prothrombin [21]) was “Active” each time. Moreover, the “reversible inhibition (activity call)” value on Kallikrein-4 [17] is “Active”.
